# Patent publication US20170362621A1, “ENGINEERED MULTIFUNCTIONAL ENZYMES AND METHODS OF USE” (Danisco US Inc., priority 2014, published 2017)
# Changes are numbered by the printed parent chain.
# Columns and labels:
# Assay type in all cases: biochemical
# [1] = biological target: T1, Trichoderma reesei Bgl1 variant Bgl1-var-02, V43F (numbered per mature Bgl1, SEQ ID NO:3) (Trichoderma reesei, UniProt Q12715, V74F); assay: steady state kinetics, hydrolysis of pNpG
# T1 construct: diluted fermentation product
# T1 sequence (Q12715 32-744 V74F): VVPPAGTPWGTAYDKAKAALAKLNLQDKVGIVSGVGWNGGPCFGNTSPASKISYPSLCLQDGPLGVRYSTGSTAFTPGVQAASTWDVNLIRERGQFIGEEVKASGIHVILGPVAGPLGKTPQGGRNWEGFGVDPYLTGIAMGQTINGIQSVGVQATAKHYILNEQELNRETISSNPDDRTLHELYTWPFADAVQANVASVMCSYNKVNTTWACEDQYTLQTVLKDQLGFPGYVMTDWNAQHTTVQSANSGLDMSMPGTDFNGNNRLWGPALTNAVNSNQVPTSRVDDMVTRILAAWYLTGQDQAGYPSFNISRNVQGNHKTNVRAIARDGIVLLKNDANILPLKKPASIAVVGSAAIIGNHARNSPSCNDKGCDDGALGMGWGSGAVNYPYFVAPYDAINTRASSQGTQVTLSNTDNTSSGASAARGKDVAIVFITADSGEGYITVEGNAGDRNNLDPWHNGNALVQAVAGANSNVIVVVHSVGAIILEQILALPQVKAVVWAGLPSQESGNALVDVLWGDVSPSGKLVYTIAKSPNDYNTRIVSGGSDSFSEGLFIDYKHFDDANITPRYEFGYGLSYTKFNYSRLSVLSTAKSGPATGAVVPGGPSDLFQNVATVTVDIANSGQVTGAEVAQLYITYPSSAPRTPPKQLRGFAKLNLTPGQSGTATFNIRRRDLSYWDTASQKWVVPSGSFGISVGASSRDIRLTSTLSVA
# From the text: (§1) The Bgl1 variants of the table above were produced as follows. The nucleotide sequences encoding these variants were synthesized by an external vendor (BaseClear, Leiden, the Netherlands), and cloned into the pTTTpyr2 vector (see, e.g., published PCT application WO2014029808). Protoplasts of a Trichoderma reesei strain (e.g., the hexa-delete strain of International Publication WO05/001036) with its cbh1, cbh2, eg1, eg2, eg3, and bgl1 deleted) were transformed with plasmid DNA encoding the variants and wild type. The resulting transformants were fermented using standard Trichoderma reesei fermentation procedures.
# (§2) Variants 02, 03 and 12 were diluted and incubated with varying concentrations of para-nitrophenol-beta-D-xylopyranoside (or para-nitrophenol-beta-D-xyloside) (pNpX) and para-nitrophenol-beta-D-glucopyranoside (pNpG) in the concentration range of 0.1-9 mM at 37° C. for 30 minutes. Reactions were stopped by addition of 100 μL 0.5 M sodium carbonate and absorbance was measured at 410 nm. Background subtracted OD410 absorbances were plotted against substrate concentration (FIG. 6B-E) and the data was fitted with a function for Michaelis-Menten kinetics using the statistical software package R. Michaelis constants and relative maximum velocities for hydrolysis of pNpX and pNpG were reported in Tables 6 and 7, below, respectively.
# [2] = biological target: T2, Trichoderma reesei Bgl1 variant Bgl1-var-03, V43L (numbered per mature Bgl1, SEQ ID NO:3) (Trichoderma reesei, UniProt Q12715, V74L); assay: steady state kinetics, hydrolysis of pNpG
# T2 construct: diluted fermentation product
# T2 sequence (Q12715 32-744 V74L): T1 sequence (Q12715 32-744 V74F) with F43L
# From the text: as §1, §2
# [3] = biological target: T3, Trichoderma reesei Bgl1 variant Bgl1-var-12, V43F/W237A (numbered per mature Bgl1, SEQ ID NO:3) (Trichoderma reesei, UniProt Q12715, V74F/W268A); assay: steady state kinetics, hydrolysis of pNpG
# T3 construct: diluted fermentation product
# T3 sequence (Q12715 32-744 V74F/W268A): T1 sequence (Q12715 32-744 V74F) with W237A
# From the text: as §1, §2
# [4] = biological target: T4, Trichoderma reesei beta-glucosidase I (Bgl1), wild type, SEQ ID NO:2 (mature SEQ ID NO:3) (Trichoderma reesei, UniProt Q12715); assay: steady state kinetics, hydrolysis of pNpG; settings: 0.1-9 mM, 37° C., 30 minutes
# T4 construct: secreted mature protein
# T4 sequence (Q12715 32-744): T1 sequence (Q12715 32-744 V74F) with F43V
# From the text: as §1, §2
# [5] = biological target: T1, Trichoderma reesei Bgl1 variant Bgl1-var-02, V43F (numbered per mature Bgl1, SEQ ID NO:3); assay: steady state kinetics, hydrolysis of pNpX
# From the text: as §1, §2
# (§3) It was noted that the data for pNpX hydrolysis by the wild type Bgl1 could not be fitted with the Michaelis-Menten function. In order to calculate a Michalis constant the maximum velocity obtained for Variant 03 was used.
# [6] = biological target: T2, Trichoderma reesei Bgl1 variant Bgl1-var-03, V43L (numbered per mature Bgl1, SEQ ID NO:3); assay: steady state kinetics, hydrolysis of pNpX
# From the text: as §1, §2, §3
# [7] = biological target: T3, Trichoderma reesei Bgl1 variant Bgl1-var-12, V43F/W237A (numbered per mature Bgl1, SEQ ID NO:3); assay: steady state kinetics, hydrolysis of pNpX
# From the text: as §1, §2, §3
# [8] = biological target: T4, Trichoderma reesei beta-glucosidase I (Bgl1), wild type, SEQ ID NO:2 (mature SEQ ID NO:3); assay: steady state kinetics, hydrolysis of pNpX; settings: not fitted, maximum velocity obtained for Variant 03 was used
# From the text: as §1, §2, §3
# [9] = fold reduction versus wild type, Table 7
# [10] = pNpG, 0.1-9 mM, 37° C., 30 minutes
# [11] = pNpX, 0.1-9 mM, 37° C., 30 minutes
SMILES,"efficiency for hydrolysis of pNpG, reduced relative to Bgl1 wild type [1, 9]","Relative Vmax [1, 10]","Relative Vmax [2, 10]","efficiency for hydrolysis of pNpG compared with Bgl1 wild type ([2]; versus wild type, Table 7)","efficiency for hydrolysis of pNpG, reduced relative to Bgl1 wild type [3, 9]","Relative Vmax [3, 10]",Relative Vmax [4],"Relative Vmax [5, 11]","more efficient hydrolysis of pNpX as compared to the wild type Bgl1 ([5]; ratio to wild type, Table 6)","Relative Vmax [6, 11]","more efficient hydrolysis of pNpX as compared to the wild type Bgl1 ([6]; ratio to wild type, Table 6)","Relative Vmax [7, 11]","higher efficiency of pNpX hydrolysis than the wild type ([7]; ratio to wild type, Table 6)",Relative Vmax [8]
"O=[N+]([O-])c1ccc(O[C@@H]2O[C@H](CO)[C@@H](O)[C@H](O)[C@H]2O)cc1 [pNpG, para-nitrophenol-beta-D-glucopyranoside]",8 ×,46 ± 6,87 ± 2,approximately equal,26 ×,27 ± 10,100.0 ± 0.1,–,–,–,–,–,–,–
"O=[N+]([O-])c1ccc(O[C@@H]2OC[C@@H](O)[C@H](O)[C@H]2O)cc1 [pNpX, para-nitrophenol-beta-D-xylopyranoside]",–,–,–,–,–,–,–,93 ± 4,6-7 fold,100 ± 4,6-7 fold,89 ± 4,about 2 ×,100 ± 4
